Data on ten molecules can be found in patent US6849732B2, “Metalloproteinase inhibitors, pharmaceutical compositions containing them and their pharmaceutical uses, and methods and intermediates useful for their preparation” (Agouron Pharmaceuticals, Inc., priority 1995, dated 2005).

The target in one data set is T1, HFC (Homo sapiens, UniProt P03956).
T1 sequence (P03956 100-469): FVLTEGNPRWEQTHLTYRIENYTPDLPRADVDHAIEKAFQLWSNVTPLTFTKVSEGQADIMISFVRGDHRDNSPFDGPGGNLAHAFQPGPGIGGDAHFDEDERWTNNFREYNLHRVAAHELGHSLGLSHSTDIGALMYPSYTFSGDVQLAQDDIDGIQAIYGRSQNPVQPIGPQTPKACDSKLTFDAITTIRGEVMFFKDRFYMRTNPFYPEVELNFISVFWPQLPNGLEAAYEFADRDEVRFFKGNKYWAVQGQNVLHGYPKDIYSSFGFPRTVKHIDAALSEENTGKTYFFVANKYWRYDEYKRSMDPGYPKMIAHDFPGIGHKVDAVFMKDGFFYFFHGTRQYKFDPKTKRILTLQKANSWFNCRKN
As to the kind of experiment: MCA fluorogenic enzyme assay, competitive inhibition analysis (Ki,app), HFC. The format is biochemical. Particulars: MCA peptide substrate, 37° C., pH 7.5, read-out: Enzyme Inhibition Constants (K1) HFC.

For a further data set, the target named is stromelysin (HSLN) (Homo sapiens, UniProt P08254). The experiment in a line: MCA fluorogenic enzyme assay, competitive inhibition analysis (Ki,app), stromelysin. The format is biochemical. Particulars: Ki,app; MCA peptide substrate, 37° C., pH 7.5; read-out: Enzyme Inhibition Constants (K1) HSLN.
Sequence of stromelysin (HSLN) (P08254 100-477): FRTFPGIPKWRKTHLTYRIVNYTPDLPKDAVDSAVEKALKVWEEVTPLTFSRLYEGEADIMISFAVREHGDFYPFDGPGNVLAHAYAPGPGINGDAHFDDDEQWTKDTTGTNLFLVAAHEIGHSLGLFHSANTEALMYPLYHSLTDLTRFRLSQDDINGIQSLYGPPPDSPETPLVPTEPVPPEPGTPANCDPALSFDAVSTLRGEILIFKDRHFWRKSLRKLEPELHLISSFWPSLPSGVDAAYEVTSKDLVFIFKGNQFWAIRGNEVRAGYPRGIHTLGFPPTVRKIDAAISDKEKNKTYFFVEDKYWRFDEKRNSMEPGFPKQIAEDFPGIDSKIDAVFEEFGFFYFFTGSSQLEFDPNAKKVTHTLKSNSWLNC
The target of the next data set is T2, gelatinase A (HG72kD) (Homo sapiens, UniProt P08253).
T2 sequence (P08253 110-660): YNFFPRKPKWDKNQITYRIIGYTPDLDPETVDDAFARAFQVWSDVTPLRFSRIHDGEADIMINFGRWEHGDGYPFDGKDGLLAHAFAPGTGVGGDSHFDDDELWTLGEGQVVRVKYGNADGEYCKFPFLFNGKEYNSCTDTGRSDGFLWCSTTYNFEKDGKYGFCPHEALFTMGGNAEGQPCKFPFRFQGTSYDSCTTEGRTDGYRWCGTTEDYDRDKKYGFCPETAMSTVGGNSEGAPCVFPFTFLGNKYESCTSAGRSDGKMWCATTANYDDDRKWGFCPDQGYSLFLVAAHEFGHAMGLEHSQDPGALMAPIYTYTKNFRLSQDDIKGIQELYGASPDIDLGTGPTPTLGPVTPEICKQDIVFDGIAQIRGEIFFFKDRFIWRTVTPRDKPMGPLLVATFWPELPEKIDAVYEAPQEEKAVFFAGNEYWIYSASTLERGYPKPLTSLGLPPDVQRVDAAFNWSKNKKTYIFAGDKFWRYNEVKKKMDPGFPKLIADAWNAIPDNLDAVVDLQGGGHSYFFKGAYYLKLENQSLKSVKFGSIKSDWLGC
As to the kind of experiment: MCA fluorogenic enzyme assay, competitive inhibition analysis (Ki,app), gelatinase A. The format is biochemical. Particulars: MCA peptide substrate, 37° C., pH 7.5, read-out: Enzyme Inhibition Constants (K1) HG72kD.

The target of another data set is Coll3 (Homo sapiens, UniProt P45452). The experiment in a line: MCA fluorogenic enzyme assay, competitive inhibition analysis (Ki,app), Coll3. The format is biochemical. The conditions noted are these: MCA peptide substrate, 37° C., pH 7.5, read-out: Enzyme Inhibition Constants (K1) Coll3.
For a further data set, the target named is T3, matrilysin (Matr.) (Homo sapiens, UniProt P09237).
T3 sequence (P09237 95-267): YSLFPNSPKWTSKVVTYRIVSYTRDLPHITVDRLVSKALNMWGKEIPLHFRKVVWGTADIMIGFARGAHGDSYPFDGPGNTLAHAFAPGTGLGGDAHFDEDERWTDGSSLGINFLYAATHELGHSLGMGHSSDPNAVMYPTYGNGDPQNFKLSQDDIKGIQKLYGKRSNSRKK
The experiment in a line: MCA fluorogenic enzyme assay, competitive inhibition analysis (Ki,app), matrilysin. The format is biochemical. The conditions noted are these: MCA peptide substrate, 37° C., pH 7.5, read-out: Enzyme Inhibition Constants (K1) Matr. As for the experimental part:
Stromelysin enzymatic activity was measured using a modified version of a resonance energy transfer fluorogenic assay as described in FEBS, vol. 296(3), p. 263 (1992), the disclosure of which is incorporated herein by reference. The MCA-peptide substrate is shown below. The fluorescent MCA group is quenched by resonance energy transfer to the 2,4-dinitrophenyl group. Matrix metalloproteinases cleave this substrate at the Gly-Leu bond. Cleavage results in the loss of energy transfer and a large increase in fluorescence of the MCA group. [drawing 56] 7-methoxycoumarin-4-yl-acetyl-pro-leu-gly-leu-3-(2,4-dinitrophenyl)-L-2,3-diaminoproprionyl-ala-arg-NH2
The MCA assay was performed at 37° C. in buffer containing 50 mM Tricine (pH 7.5), 10 mM CaCl2, 200 mM NaCl, and 1% DMSO with the following concentrations of matrix metalloproteinases: 1.4 nM stromelyin, 0.063 nM matrilysin, and 0.030 nM gelatinase A. The concentration of MCA substrate was 10 or 20 μM in a final volume of 1.6 mL. Fluorescence data was collected with Perkin-Elmer LS-5B and LS-5B spectrofluorimeters with λexcitation=328 nm and λemission=393 nm. Spectrofluorimeters were interfaced with IBM-compatible microcomputer systems.
The Km for the MCA peptide substrate with the matrix metalloproteinases is quite high and exceeds its solubility under assay conditions. Consequently, the apparent Ki (Ki,app) was determined to describe the strength of inhibition. However, in this case, Ki,app would be essentially equal to Ki since [S]<<Km. For the determination of Ki,app, the concentration of the inhibitor was varied at a constant and low concentration of substrate and the steady-state rates of fluorescence change determined. In most cases absorptive quench due to the presence of ligand was not observed. For slow-binding inhibitors, onset of inhibition curves were collected for at least 45 minutes so that equilibrium was established. Steady-state rates of fluorescence change were obtained by fitting a curve to an equation for a single exponential decay containing a linear phase. The fitted value of the linear phase was taken as the steady-state rate. The steady-state rates were fitted to the Michaelis equation describing competitive inhibition by non-linear methods. Data resulting from tight-binding inhibition was analyzed, and Ki,app determined by fitting the data to the tight-binding equation of Morrison See (Biochem. Biophys. Acta, vol. 185, pp. 269-286 (1969)) by non-linear methods.

The subject of data set [1] is murine Lewis lung carcinoma (NIH) tumor line. As to the kind of experiment: Tumor model: subcutaneous Lewis lung carcinoma, primary tumor growth and lung metastases. The conditions noted are these: 50 mg/kg; for Tumor Growth Delay / % Inhibition-Lung Metastases: i.p., daily, Day 1-Day 21; for Tumor Growth Delay: delay in reaching 1000 mm^3 tumor volume between control and treated animals; for % Inhibition-Lung Metastases: metastases counted 22 days after tumor implantation. It counts as in vivo, female BDF1 mice. The text has this:
Primary subcutaneous tumors were established in female BDF1 mice by trocar inoculation of the murine Lewis lung carcinoma (NIH) tumor line. This tumor line produces spontaneous lung metastases which arise from the primary tumor. Primary tumor growth was monitored by measuring the length and width of the subcutaneous tumor using calipers; lung metastases were counted at the end of the experiment (22 days after tumor implantation) by removing the lungs and counting the lesions using a dissecting microscope. The test compound was administered daily, i.p., beginning 24 hours after tumor implantation (day 1) and continuing through day 21. Primary tumor volumes and number of lung metastases were compared to control animals using an ANOVA followed by a comparison of means using the F statistic. […] All drugs were administered at 50 mg/kg, i.p., daily, Day 1-Day 21.

Data set [2] has as its system bovine nasal cartilage plugs. As to the kind of experiment: Arthritis model: implanted bovine nasal cartilage plugs in sponges impregnated with Mycobacterium tuberculosis. Particulars: p < 0.01; for weight loss % inhibition: cartilage plug weight; for hydroxyproline % protection: hydroxyproline content of plugs. The format is in vivo, female Lewis rats. The protocol: Previously frozen bovine nasal cartilage plugs weighing approximately 20 mg were embedded in polyvinyl sponges impregnated with Mycobacterium tuberculosis and implanted subcutaneously in female Lewis rats. Dosing was begun 9 days after implantation and the plugs were harvested about one week later. The plugs were weighed and then hydrolyzed and the hydroxyproline content measured. Efficaciousness was determined by the comparison of the compound-treated groups with vehicle-treated controls.

Structures can show the parent of a compound that is named as a salt.

`O=C(NO)[C@H]1COCCN1S(=O)(=O)c1ccc(Oc2ccc(Cl)cc2)cc1` [8(a), 3(R)-N-hydroxy-4-(4-(4-chlorophenoxy)benzenesulfonyl)-morpholine-3-carboxamide]: the Ki was determined as 8.9 nM on HFC; 0.093 nM at stromelysin (HSLN); 0.031 nM at gelatinase A (HG72kD); 0.021 nM on Coll3; 77 nM on matrilysin (Matr.). For the same molecule, the “Tumor Growth Delay” value in data set [1] is -0.1 days. In addition, in data set [1], the “% Inhibition-Lung Metastases” value worked out at 7.5%.
A word on the melting point: it is the temperature of the solid-liquid transition. Regarding `CCOC(=O)CN1CCN(S(=O)(=O)c2ccc(Oc3ccc(Cl)cc3)cc2)[C@@H](C(=O)NO)C1` (as salt: hydrochloride) [Example 11(c), 2(R)-N-hydroxy-1-(4-(4-chlorophenoxy)benzenesulfonyl)-4-(ethoxycarbonylmethyl)-piperazine-2-carboxamide hydrochloride], the melting point came out at 163.7 °C.
For `CC(C)(C)OC(=O)N1CCN(S(=O)(=O)c2ccc(Oc3ccc(Cl)cc3)cc2)[C@@H](C(=O)NO)C1` [Example 9(a), 2(R)-N-hydroxy-1-(4-(4-chlorophenoxy)benzenesulfonyl)-4-(t-butoxycarbonyl)-piperazine-2-carboxamide], the Ki on stromelysin (HSLN) came out at 0.31 nM; on gelatinase A (HG72kD), 0.007 nM; on Coll3 it was 0.006 nM; at matrilysin (Matr.) it was 142 nM. Further, in data set [1], the “Tumor Growth Delay” value is recorded as 7.2 days (p < 0.025). Further, in data set [1], the “% Inhibition-Lung Metastases” value was 77.6% (p < 0.05). Besides, in data set [1] (p<0.025), the “tumor growth delay relative to control (significance, in words)” value was “statistically significant”. The “number of lung metastases relative to the control (significance, in words)” value in data set [1] (p<0.05) is “statistically significant”.
Take `CC(C)(C)OC(=O)N1CCN(S(=O)(=O)c2ccc(Oc3ccc(Br)cc3)cc2)C(C(=O)NO)C1` (racemic) [Example 4, 2(R/S)-N-hydroxy-1-(4-(4-bromophenoxy)benzenesulfonyl)-4-(t-butoxycarbonyl)-piperazine-2-carboxamide]: the melting point is 112.4 °C. Besides, the Ki on HFC was found to be 60 nM. Moreover, the Ki on stromelysin (HSLN) was determined as 0.73 nM. The Ki on gelatinase A (HG72kD) was found to be 0.025 nM. For the same molecule, at Coll3, the Ki was 0.07 nM. In addition, the Ki on matrilysin (Matr.) amounted to 378 nM.
Regarding `CC(=O)N1CCN(S(=O)(=O)c2ccc(Oc3ccccc3)cc2)C(C(=O)NO)C1` (racemic) [7(a), 2(R/S)-N-hydroxy-1-(4-phenoxybenzenesulfonyl)-4-acetyl-piperazine-2-carboxamide], the Ki on stromelysin (HSLN) was 0.64 nM; on gelatinase A (HG72kD), 0.11 nM; on Coll3, 0.05 nM; at matrilysin (Matr.), 113 nM. Also, the “weight loss % inhibition” value in data set [2] (dose p.o. 10 mg/kg/day) was determined as 77.4%. Besides, in data set [2] (dose p.o. 10 mg/kg/day), the hydroxyproline % protection stood at 86.7%. Further, the “Tumor Growth Delay” value in data set [1] stood at 0.0 days. Further, the “% Inhibition-Lung Metastases” value in data set [1] worked out at 16.1%.
`Cl.O=C(NO)C1CNCCN1S(=O)(=O)c1ccc(Oc2ccc(Br)cc2)cc1` (racemic) [5(a), 2(R/S)-N-hydroxy-1(4-(4-bromophenoxy)benzenesulfonyl)-piperazine-2-carboxamide hydrochloride]: the Ki at HFC turned out to be 68 nM; on stromelysin (HSLN), 1.8 nM; at gelatinase A (HG72kD), 0.77 nM; at Coll3, 1.1 nM; on matrilysin (Matr.), 263 nM. Besides, the “weight loss % inhibition” value in data set [2] (dose p.o. 10 mg/kg/day) is reported as 59.6%. The hydroxyproline % protection in data set [2] (dose p.o. 10 mg/kg/day) came to 72.5%. For the same molecule, the “Tumor Growth Delay” value in data set [1] is on record as 2.0 days. Moreover, the “% Inhibition-Lung Metastases” value in data set [1] came out at 13.6%.
In the case of `CC1(C)SCCN(S(=O)(=O)c2ccc(Oc3ccc(-n4ccnc4)cc3)cc2)[C@H]1C(=O)NO` [3(a), 3(S)-N-hydroxy-4-(4-(4-(imidazol-1-yl)phenoxy)benzenesulfonyl)-2,2-dimethyl-tetrahydro-2H-1,4-thiazine-3-carboxamide], the Ki is 15 nM on HFC; 0.25 nM at stromelysin (HSLN); 0.011 nM at gelatinase A (HG72kD); 0.017 nM on Coll3; 5 nM on matrilysin (Matr.). The “weight loss % inhibition” value in data set [2] (dose p.o. 25 mg/kg/day) was 97.5%.
`Cc1ccc(Oc2ccc(S(=O)(=O)Cl)cc2)cc1` [2(b), 4-(4-Methylphenoxy)benzenesulfonyl chloride] displayed a melting point of 295 to 300 °C. Also, in data set [2] (dose p.o. 25 mg/kg/day), the “weight loss % inhibition” value is on record as 81.1%.
`O=C(NO)C1CNCCN1S(=O)(=O)c1ccc(Oc2ccccc2)cc1` (racemic) [Example 5(b), 2(R/S)-N-hydroxy-1-(4-phenoxybenzenesulfonyl)-piperazine-2-carboxamide] displayed a melting point of 160.4 °C. Also, the Ki at stromelysin (HSLN) is 6.2 nM. Moreover, at gelatinase A (HG72kD), the Ki amounted to 0.864 nM. For the same molecule, the Ki at matrilysin (Matr.) was determined as 560 nM.
In turn, `CC1(C)C(C(=O)NO)N(S(=O)(=O)c2ccc(Oc3ccc(Cl)cc3)cc2)CC[S+]1[O-]` [Example 19(b), 1(R), 3(S)-N-hydroxy-4-(4-(4-chlorophenoxy)benzenesulfonyl)-2,2-dimethyl-1-oxo-tetrahydro-2H-1,4-thiazine-3-carboxamide] registered a melting point of 145 to 147 °C. Moreover, the Ki at stromelysin (HSLN) came out at 2.5 nM. Moreover, the Ki on gelatinase A (HG72kD) amounted to 0.018 nM.
